Consider 14 compounds from patent US6906097B2, “8-azaprostaglandin analogs as agents for lowering intraocular pressure” (Allergan, Inc., priority 2002, dated 2005).

Experiment [1] addresses T1, hEP4 (Homo sapiens, UniProt P35408).
T1 construct: expressed in transfected cells
The experiment in a line: Radioligand binding, hEP4. Conditions: [3H]PGE2 competition. As to the method: (§1) Human Recombinant EP1, EP2, EP3, EP4, FP, TP, IP and DP Receptors: Stable Transfectants
(§2) Plasmids encoding the human EP1, EP2, EP3, EP4, FP, TP, IP and DP receptors were prepared by cloning the respective coding sequences into the eukaryotic expression vector pCEP4 (Invitrogen). The pCEP4 vector contains an Epstein Barr virus (EBV) origin of replication, which permits episomal replication in primate cell lines expressing EBV nuclear antigen (EBNA-1). It also contains a hygromycin resistance gene that is used for eukaryotic selection. […] HEK-293 cells were grown in DMEM with 10% fetal bovine serum (FBS), 250 μg ml^−1 G418 (Life Technologies) and 200 μg ml^−1 gentamicin or penicillin/streptomycin.
(§3) For transfection, the cells were grown to 50-60% confluency on 10 cm plates. The plasmid pCEP4 incorporating cDNA inserts for the respective human prostanoid receptor (20 μg) was added to 500 μl of 250 mM CaCl2. […] After 30 min, 9 ml DMEM were added to the mixture. The DNA/DMEM/calcium phosphate mixture was then added to the cells, which had been previously rinsed with 10 ml PBS. The cells were then incubated for 5 hr at 37° C. in humidified 95% air/5% CO2. The calcium phosphate solution was then removed and the cells were treated with 10% glycerol in DMEM for 2 min. The glycerol solution was then replaced by DMEM with 10% FBS. The cells were incubated overnight and the medium was replaced by DMEM/10% FBS containing 250 μg ml^−1 G418 and penicillin/streptomycin. The following day hygromycin B was added to a final concentration of 200 μg ml^−1.
(§4) Ten days after transfection, hygromycin B resistant clones were individually selected and transferred to a separate well on a 24 well plate. At confluence each clone was transferred to one well of a 6 well plate, and then expanded in a 10 cm dish. Cells were maintained under continuous hygromycin selection until use.
Radioligand binding studies on plasma membrane fractions prepared for cells stably transfected with the cat or human receptor were performed as follows. Cells washed with TME buffer were scraped from the bottom of the flasks and homogenized for 30 sec using a Brinkman PT 10/35 polytron. TME buffer was added as necessary to achieve a 40 ml volume in the centrifuge tubes. TME is comprised of 50 mM TRIS base, 10 mM MgCl2, 1 mM EDTA; pH 7.4 is achieved by adding 1 N HCl. The cell homogenate was centrifuged at 19,000 rpm for 20-25 min at 4° C. using a Beckman Ti-60 or Ti-70 rotor. The pellet was then resuspended in TME buffer to provide a final protein concentration of 1 mg/ml, as determined by Bio-Rad assay. Radioligand binding assays were performed in a 100 μl or 200 μl volume.
The binding of [^3H](N) PGE2 (specific activity 165 Ci/mmol) was determined in duplicate and in at least 3 separate experiments. Incubations were for 60 min at 25° C. and were terminated by the addition of 4 ml of ice-cold 50 mM TRIS-HCl followed by rapid filtration through Whatman GF/B filters and three additional 4 ml washes in a cell harvester (Brandel). Competition studies were performed using a final concentration of 2.5 or 5 nM [^3H](N) PGE2 and non-specific binding was determined with 10^−5 M unlabelled PGE2.

Experiment [2] addresses T1, hEP4. As to the kind of experiment: Functional data, human recombinant EP4 receptor stable transfectants. It is filed as cell-based. As for the experimental part: as §1, §2, §3, §4
The target in the next experiment is T2, hEP1 (Homo sapiens, UniProt P34995).
T2 construct: expressed in transfected cells
T2 sequence (P34995 1-402): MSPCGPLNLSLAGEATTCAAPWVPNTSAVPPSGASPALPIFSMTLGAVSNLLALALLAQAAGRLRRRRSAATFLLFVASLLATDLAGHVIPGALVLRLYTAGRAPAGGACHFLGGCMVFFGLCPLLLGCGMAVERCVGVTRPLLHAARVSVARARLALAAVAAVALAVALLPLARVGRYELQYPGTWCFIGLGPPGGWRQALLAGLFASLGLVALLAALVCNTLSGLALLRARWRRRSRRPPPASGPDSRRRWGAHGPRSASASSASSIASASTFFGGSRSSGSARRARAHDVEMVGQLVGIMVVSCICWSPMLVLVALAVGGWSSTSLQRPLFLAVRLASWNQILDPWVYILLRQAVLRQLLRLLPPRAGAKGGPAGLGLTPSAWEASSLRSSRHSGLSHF
The experiment in a line: Functional data, human recombinant EP1 receptor stable transfectants. It counts as cell-based. As for the experimental part:
as §1
(§5) Plasmids encoding the human EP1, EP2, EP3, EP4, FP, TP, IP and DP receptors were prepared by cloning the respective coding sequences into the eukaryotic expression vector pCEP4 (Invitrogen). The pCEP4 vector contains an Epstein Barr virus (EBV) origin of replication, which permits episomal replication in primate cell lines expressing EBV nuclear antigen (EBNA-1). It also contains a hygromycin resistance gene that is used for eukaryotic selection. The cells employed for stable transfection were human embryonic kidney cells (HEK-293) that were transfected with and express the EBNA-1 protein. These HEK-293-EBNA cells (Invitrogen) were grown in medium containing Geneticin (G418) to maintain expression of the EBNA-1 protein. HEK-293 cells were grown in DMEM with 10% fetal bovine serum (FBS), 250 μg ml^−1 G418 (Life Technologies) and 200 μg ml^−1 gentamicin or penicillin/streptomycin.
(§6) For transfection, the cells were grown to 50-60% confluency on 10 cm plates. The plasmid pCEP4 incorporating cDNA inserts for the respective human prostanoid receptor (20 μg) was added to 500 μl of 250 mM CaCl2. HEPES buffered saline×2 (2×HBS, 280 mM NaCl, 20 mM HEPES acid, 1.5 mM Na2 HPO4, pH 7.05-7.12) was then added dropwise to a total of 500 μl, with continuous vortexing at room temperature. After 30 min, 9 ml DMEM were added to the mixture. The DNA/DMEM/calcium phosphate mixture was then added to the cells, which had been previously rinsed with 10 ml PBS. The cells were then incubated for 5 hr at 37° C. in humidified 95% air/5% CO2. The calcium phosphate solution was then removed and the cells were treated with 10% glycerol in DMEM for 2 min. The glycerol solution was then replaced by DMEM with 10% FBS. The cells were incubated overnight and the medium was replaced by DMEM/10% FBS containing 250 μg ml^−1 G418 and penicillin/streptomycin. The following day hygromycin B was added to a final concentration of 200 μg ml^−1.
as §4

The target of a further experiment is T3, hTP (Homo sapiens, UniProt P21731).
T3 construct: expressed in transfected cells
T3 sequence (P21731 1-343): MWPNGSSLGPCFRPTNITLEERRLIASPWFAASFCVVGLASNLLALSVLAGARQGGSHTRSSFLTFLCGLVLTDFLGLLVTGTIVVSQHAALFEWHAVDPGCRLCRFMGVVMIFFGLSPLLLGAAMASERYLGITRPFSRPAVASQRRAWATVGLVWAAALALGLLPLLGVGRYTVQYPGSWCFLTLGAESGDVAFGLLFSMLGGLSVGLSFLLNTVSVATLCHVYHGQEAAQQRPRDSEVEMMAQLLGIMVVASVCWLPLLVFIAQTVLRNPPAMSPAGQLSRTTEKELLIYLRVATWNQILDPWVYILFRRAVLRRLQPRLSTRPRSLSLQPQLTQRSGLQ
The experiment in a line: Functional data, human recombinant TP receptor stable transfectants. It is filed as cell-based. As to the method: as §1, §5, §6, §4

In a further experiment the target is T4, hEP3A (Homo sapiens, UniProt P43115).
T4 construct: expressed in transfected cells
T4 sequence (P43115 1-390): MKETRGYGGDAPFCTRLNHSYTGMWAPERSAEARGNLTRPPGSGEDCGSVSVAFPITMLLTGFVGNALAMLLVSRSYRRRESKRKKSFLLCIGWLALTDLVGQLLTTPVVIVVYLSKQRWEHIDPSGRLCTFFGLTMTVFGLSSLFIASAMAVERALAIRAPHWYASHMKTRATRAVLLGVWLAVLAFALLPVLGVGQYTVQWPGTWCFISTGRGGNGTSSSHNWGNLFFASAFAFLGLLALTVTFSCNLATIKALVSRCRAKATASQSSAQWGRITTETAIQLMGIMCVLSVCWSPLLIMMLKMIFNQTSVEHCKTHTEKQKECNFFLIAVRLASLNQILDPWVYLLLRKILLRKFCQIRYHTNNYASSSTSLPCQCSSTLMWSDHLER
As to the kind of experiment: Functional data, human recombinant EP3A receptor stable transfectants. It counts as cell-based. As to the method: as §1, §2, §3, §4

SMILES strings stand for the structures.

T1 sequence (P35408 whole entry): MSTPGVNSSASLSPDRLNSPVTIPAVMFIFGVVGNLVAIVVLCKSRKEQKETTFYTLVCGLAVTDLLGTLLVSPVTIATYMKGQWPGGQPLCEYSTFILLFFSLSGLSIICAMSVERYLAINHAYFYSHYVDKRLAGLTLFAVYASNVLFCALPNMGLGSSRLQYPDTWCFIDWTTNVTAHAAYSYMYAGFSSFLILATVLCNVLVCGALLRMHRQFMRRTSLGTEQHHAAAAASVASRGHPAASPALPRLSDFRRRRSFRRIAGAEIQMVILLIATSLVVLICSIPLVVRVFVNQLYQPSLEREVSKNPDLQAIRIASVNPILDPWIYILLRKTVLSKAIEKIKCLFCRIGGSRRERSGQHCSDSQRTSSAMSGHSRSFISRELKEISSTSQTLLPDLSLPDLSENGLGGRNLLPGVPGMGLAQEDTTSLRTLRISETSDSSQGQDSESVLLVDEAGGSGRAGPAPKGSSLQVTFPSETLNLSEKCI

As usually defined, the IC50 is the concentration at which inhibition is half-maximal. Higher therefore signals a need for much substance. In general, EC50 refers to the midpoint of the concentration-response curve. Consider `CCOC(=O)CCCCCCN1C(=O)CC[C@@H]1CCC(O)Cc1cccc(Cl)c1` (stereo partly drawn) [Example 2, 7-[2S-[3R-Hydroxy-4-(chlorophenyl)-butyl]-5-oxo-pyrrolidin-1-yl]-heptanoic acid, ethyl ester], for which the IC50 on hEP4 [1] worked out at 1000 nM. Besides, the EC50 at hEP4 [2] was found to be 65 nM.
The matching figures for `CCOC(=O)CCCCCCN1C(=O)CC[C@@H]1/C=C/C(O)Cc1cccc(Cl)c1` (stereo partly drawn) [Example 2a, 7-[2S-[3R-Hydroxy-4-(chlorophenyl)-but-1-enyl]-5-oxo-pyrrolidin-1-yl]-heptanoic acid, ethyl ester]: 300 nM and 21 nM.
Consider `O=C(O)CCCCCCN1C(=O)CC[C@@H]1/C=C/C(=O)Cc1cccc(Cl)c1` [Example 3a, 7-[2S-[4-(3-Chloro-phenyl)-3-oxo-but-1-enyl]-5-oxo-pyrrolidin-1-yl]-heptanoic acid], for which the “hEP1 functional EC50” value at hEP1 is given as “hit”. The compound further had an IC50 at hEP4 [1] of 300 nM. In addition, the EC50 on hEP4 [2] was 54 nM; on hTP it was above 10000 nM; at hEP3A, 324 nM.
For the compound `CCOC(=O)CCCCCCN1C(=O)CC[C@@H]1/C=C/C(=O)Cc1cccc(Cl)c1` [Example 4a, 7-[2S-[4-(3-Chloro-phenyl)-3-oxo-but-1-enyl]-5-oxo-pyrrolidin-1-yl]-heptanoic acid, ethyl ester], the IC50 on hEP4 [1] was above 10000 nM. For the same compound, the EC50 at hEP4 [2] is above 10000 nM.
At hEP4 [1], `O=C(O)CCCCCCN1C(=O)CC[C@@H]1CCC(O)Cc1cccc(C(F)(F)F)c1` (stereo partly drawn) [Example 5, 7-[2S-[3R-Hydroxy-4-(3-trifluoromethyl-phenyl)-butyl]-5-oxo-pyrrolidin-1-yl]-heptanoic acid] gave an IC50 of 17 nM. The EC50 on hEP4 [2] came to 0.4 nM. For the same compound, the “hEP3A functional EC50” value on hEP3A is on record as “hit”.
On the same counts, the results for `O=C(O)CCCCCCN1C(=O)CC[C@@H]1/C=C/C(O)Cc1cccc(C(F)(F)F)c1` (stereo partly drawn) [Example 5a, 7-[2S-[3R-Hydroxy-4-(3-trifluoromethyl-phenyl)-but-1-enyl]-5-oxo-pyrrolidin-1-yl]-heptanoic acid] are 5 nM, 0.4 nM and “hit”.
With `CCOC(=O)CCCCCCN1C(=O)CC[C@@H]1CCC(O)Cc1cccc(C(F)(F)F)c1` (stereo partly drawn) [Example 6, 7-[2S-[3R-Hydroxy-4-(3-trifluoromethyl-phenyl)-butyl]-5-oxo-pyrrolidin-1-yl]-heptanoic acid, ethyl ester], on hEP4 [1], the IC50 was found to be 1200 nM. The EC50 on hEP4 [2] amounted to 111 nM.
`CCOC(=O)CCCCCCN1C(=O)CC[C@@H]1CCC(=O)Cc1cccc(C(F)(F)F)c1` [Example 8, 7-[2S-[3-Oxo-4-(trifluoromethylphenyl)-butyl]-5-oxo-pyrrolidin-1-yl]-heptanoic acid, ethyl ester] returned a half-inhibitory concentration (IC50) on hEP4 [1] above 10000 nM. For the same compound, the EC50 at hEP4 [2] is 7160 nM.
With `CCOC(=O)CCCCCCN1C(=O)CC[C@@H]1/C=C/C(=O)Cc1cccc(C(F)(F)F)c1` [Example 8a, 7-[2S-[3-Oxo-4-(trifluoromethylphenyl)-but-1-enyl]-5-oxo-pyrrolidin-1-yl]-heptanoic acid, ethyl ester], the IC50 on hEP4 [1] was above 10000 nM. For the same compound, the half-maximal effective concentration (EC50) on hEP4 [2] and at hEP3A was above 10000 nM throughout.
`O=C(O)CCCCCCN1C(=O)CC[C@@H]1CCC(O)Cc1ccccc1` (stereo partly drawn) [Example 9, 7-[2S-[3R-Hydroxy-(4-phenyl)-butyl]-5-oxo-pyrrolidin-1-yl]-heptanoic acid] returned an IC50 on hEP4 [1] of 18 nM. In addition, the EC50 is 2.4 nM at hEP4 [2] and above 10000 nM at hEP3A.
Take `CCOC(=O)CCCCCCN1C(=O)CC[C@@H]1CCC(O)Cc1ccccc1` (stereo partly drawn) [Example 10, 7-[2S-[3R-Hydroxy-(4-phenyl)-butyl]-5-oxo-pyrrolidin-1-yl]-heptanoic acid, ethyl ester]: at hEP4 [2], the EC50 turned out to be 1020 nM.
For `CCOC(=O)CCCCCCN1C(=O)CC[C@@H]1/C=C/C(O)Cc1ccccc1` (stereo partly drawn) [Example 10a, 7-[2S-[3R-Hydroxy-(4-phenyl)-but-1-enyl]-5-oxo-pyrrolidin-1-yl]-heptanoic acid, ethyl ester], at hEP4 [1], the 50% inhibitory concentration (IC50) came out at 600 nM. The EC50 at hEP4 [2] was found to be 368 nM.
`CCOC(=O)CCCCCCN1C(=O)CC[C@@H]1CCC(=O)Cc1ccccc1` [Example 12, 7-[2S-[3-Oxo-4-(phenyl)-butyl]-5-oxo-pyrrolidin-1-yl]-heptanoic acid, ethyl ester] displayed an IC50 at hEP4 [1] of 8900 nM. For the same compound, at hEP4 [2], the EC50 was above 10000 nM.
For `CCOC(=O)CCCCCCN1C(=O)CC[C@@H]1/C=C/C(=O)Cc1ccccc1` [Example 12a, 7-[2S-[3-Oxo-4-(phenyl)-but-1-enyl]-5-oxo-pyrrolidin-1-yl]-heptanoic acid, ethyl ester], the IC50 on hEP4 [1] was above 10000 nM. For the same compound, the EC50 on hEP4 [2] is above 10000 nM.
